Measured values published in patent publication US20130053381A1, “2,4-DIOXO-1,4-DIHYDRO-2H-QUINAZOLIN-3-YL-SULFONAMIDE DERIVATIVES” (NOVARTIS AG, priority 2010, published 2013).

What follows are compounds tested on OF1 mice (assay: Maximal electroshock test (MES Test)). Settings: Mus musculus; dose of up to 50 mg/kg, p.o., 1 hour prior to induction of convulsions; read-out: %-Protection.
Format: in vivo
Outline: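 Compound given p.o. (typically 50 mg/kg) 1 h before tonic-clonic convulsions were induced via temporal electrodes (50 Hz, 18 mA, 0.2 s); seizure lasting 3 s or less counted as protection. Read-out is percent protected of five mice per condition; ED50 calculated, blood exposure sampled after shock.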
In the case of `CCCCCCOC(=O)N(n1c(=O)[nH]c2cc(C(F)(F)F)c([C@H]3CCCO3)cc2c1=O)S(C)(=O)=O` [Methanesulfonyl-[(R)-2,4-Dioxo-6-tetrahydro-furan-2-yl-7-trifluoromethyl-1,4-dihydro-2H-quinazolin-3-yl]carbamic acid hexyl ester], the responders at 50 mg/kg was 0%. Compound `CC(C)OC(=O)N(n1c(=O)[nH]c2cc(C(F)(F)F)c([C@H]3CCCO3)cc2c1=O)S(C)(=O)=O` [Methanesulfonyl-[(R)-2,4-Dioxo-6-tetrahydro-furan-2-yl-7-trifluoromethyl-1,4-dihydro-2H-quinazolin-3-yl]carbamic acid isopropyl ester] has a responders at 50 mg/kg of 0%. In the case of `CCCCCOC(=O)N(n1c(=O)[nH]c2cc(C(F)(F)F)c([C@H]3CCCO3)cc2c1=O)S(C)(=O)=O` [Methanesulfonyl-[(R)-2,4-Dioxo-6-tetrahydro-furan-2-yl-7-trifluoromethyl-1,4-dihydro-2H-quinazolin-3-yl]carbamic acid pentyl ester], the responders at 50 mg/kg was 0%. `CCCOC(=O)N(n1c(=O)[nH]c2cc(C(F)(F)F)c([C@H]3CCCO3)cc2c1=O)S(C)(=O)=O` [Methanesulfonyl-[(R)-2,4-Dioxo-6-tetrahydro-furan-2-yl-7-trifluoromethyl-1,4-dihydro-2H-quinazolin-3-yl]carbamic acid propyl ester] gave a responders at 50 mg/kg of 0%. `CCn1nccc1-c1cc2c(=O)n(N(C(C)=O)S(C)(=O)=O)c(=O)[nH]c2cc1C(F)(F)F` [N-Acetyl-N-[6-(2-ethyl-2H-pyrazol-3-yl)-2,4-dioxo-7-trifluoromethyl-1,4-dihydro-2H-quinazolin-3-yl]-methanesulfonamide] gave a responders at 50 mg/kg of 0%. `CCn1nccc1-c1cc2c(=O)n(N(C(C)=O)S(C)(=O)=O)c(=O)[nH]c2cc1C(F)F` [N-Acetyl-N-[7-difluoromethyl-6-(2-ethyl-2H-pyrazol-3-yl)-2,4-dioxo-1,4-dihydro-2H-quinazolin-3-yl]-methanesulfonamide] was tested, and the responders at 50 mg/kg was 0%. With `CCc1cc2[nH]c(=O)n(N(C(C)=O)S(C)(=O)=O)c(=O)c2cc1-c1ccnn1CC` [N-Acetyl-N-[7-ethyl-6-(2-ethyl-2H-pyrazol-3-yl)-2,4-dioxo-1,4-dihydro-2H-quinazolin-3-yl]-methanesulfonamide] the responders at 50 mg/kg was 0%. For `CCCC(=O)N(n1c(=O)[nH]c2cc(CC)c(-c3ccnn3CC)cc2c1=O)S(C)(=O)=O` [N-Butyryl-N-[7-ethyl-6-(2-ethyl-2H-pyrazol-3-yl)-2,4-dioxo-1,4-dihydro-2H-quinazolin-3-yl]-methanesulfonamide], the responders at 50 mg/kg was 0%. `CCn1nccc1-c1cc2c(=O)n(N(C(=O)CCSC)S(C)(=O)=O)c(=O)[nH]c2cc1C(F)(F)F` [N-[6-(2-Ethyl-2H-pyrazol-3-yl)-2,4-dioxo-7-trifluoromethyl-1,4-dihydro-2H-quinazolin-3-yl]-N-(3-methylsulfanyl-propionyl)-methanesulfonamide] gave a responders at 50 mg/kg of 0%. `CCCCC(=O)N(n1c(=O)[nH]c2cc(C(F)(F)F)c(-c3ccnn3CC)cc2c1=O)S(C)(=O)=O` [N-[6-(2-Ethyl-2H-pyrazol-3-yl)-2,4-dioxo-7-trifluoromethyl-1,4-dihydro-2H-quinazolin-3-yl]-N-pentanoyl-methanesulfonamide] showed a responders at 50 mg/kg of 0%. Compound `CCCCC(=O)N(n1c(=O)[nH]c2cc(C(F)(F)F)c(-c3ccnn3C(C)C)cc2c1=O)S(C)(=O)=O` [N-[6-(2-Isopropyl-2H-pyrazol-3-yl)-2,4-dioxo-7-trifluoromethyl-1,4-dihydro-2H-quinazolin-3-yl]-N-pentanoyl-methanesulfonamide] has a responders at 50 mg/kg of 0%. In the case of `CCn1nccc1-c1cc2c(=O)n(N(C(=O)C(C)(C)C)S(C)(=O)=O)c(=O)[nH]c2cc1C(F)F` [N-[7-Difluoromethyl-6-(2-ethyl-2H-pyrazol-3-yl)-2,4-dioxo-1,4-dihydro-2H-quinazolin-3-yl]-N-(2,2-dimethyl-propionyl)-methanesulfonamide], the responders at 50 mg/kg was 0%.
